The numbers were not newly measured in patent US20050063935A1, “Adsorbent for cytokine, method of adsorptive removal, and apparatus adsorptive removal” (priority 2002, published 2005), which cites them from elsewhere.

For the data set the following is noted: octanol-water system; free ligand compound before immobilization.

Turning to `CCCCN` [n-butylamine], the “log P” value is 0.97.

With `CCCCCCCCN` [n-octylamine], the “log P” value is listed as 2.90.

What is called log P is a log measure of how a compound divides between an organic and an aqueous phase.
